Assay results as given in publication PMC7956813, “Evaluation of Fused Pyrrolothiazole Systems as Correctors of Mutant CFTR Protein” (Molecules, 2021).

Molecular target: F508del-CFTR (Homo sapiens, UniProt P13569, DEL508-508)
Experiment: HS-YFP iodide-influx fluorescence quenching assay, […] h incubation, Hill fit
Type: cell-based
Conditions: read-out: half-effective concentration

F508del-CFTR, sequence (P13569 with tags, fused parts or gaps DEL508-508): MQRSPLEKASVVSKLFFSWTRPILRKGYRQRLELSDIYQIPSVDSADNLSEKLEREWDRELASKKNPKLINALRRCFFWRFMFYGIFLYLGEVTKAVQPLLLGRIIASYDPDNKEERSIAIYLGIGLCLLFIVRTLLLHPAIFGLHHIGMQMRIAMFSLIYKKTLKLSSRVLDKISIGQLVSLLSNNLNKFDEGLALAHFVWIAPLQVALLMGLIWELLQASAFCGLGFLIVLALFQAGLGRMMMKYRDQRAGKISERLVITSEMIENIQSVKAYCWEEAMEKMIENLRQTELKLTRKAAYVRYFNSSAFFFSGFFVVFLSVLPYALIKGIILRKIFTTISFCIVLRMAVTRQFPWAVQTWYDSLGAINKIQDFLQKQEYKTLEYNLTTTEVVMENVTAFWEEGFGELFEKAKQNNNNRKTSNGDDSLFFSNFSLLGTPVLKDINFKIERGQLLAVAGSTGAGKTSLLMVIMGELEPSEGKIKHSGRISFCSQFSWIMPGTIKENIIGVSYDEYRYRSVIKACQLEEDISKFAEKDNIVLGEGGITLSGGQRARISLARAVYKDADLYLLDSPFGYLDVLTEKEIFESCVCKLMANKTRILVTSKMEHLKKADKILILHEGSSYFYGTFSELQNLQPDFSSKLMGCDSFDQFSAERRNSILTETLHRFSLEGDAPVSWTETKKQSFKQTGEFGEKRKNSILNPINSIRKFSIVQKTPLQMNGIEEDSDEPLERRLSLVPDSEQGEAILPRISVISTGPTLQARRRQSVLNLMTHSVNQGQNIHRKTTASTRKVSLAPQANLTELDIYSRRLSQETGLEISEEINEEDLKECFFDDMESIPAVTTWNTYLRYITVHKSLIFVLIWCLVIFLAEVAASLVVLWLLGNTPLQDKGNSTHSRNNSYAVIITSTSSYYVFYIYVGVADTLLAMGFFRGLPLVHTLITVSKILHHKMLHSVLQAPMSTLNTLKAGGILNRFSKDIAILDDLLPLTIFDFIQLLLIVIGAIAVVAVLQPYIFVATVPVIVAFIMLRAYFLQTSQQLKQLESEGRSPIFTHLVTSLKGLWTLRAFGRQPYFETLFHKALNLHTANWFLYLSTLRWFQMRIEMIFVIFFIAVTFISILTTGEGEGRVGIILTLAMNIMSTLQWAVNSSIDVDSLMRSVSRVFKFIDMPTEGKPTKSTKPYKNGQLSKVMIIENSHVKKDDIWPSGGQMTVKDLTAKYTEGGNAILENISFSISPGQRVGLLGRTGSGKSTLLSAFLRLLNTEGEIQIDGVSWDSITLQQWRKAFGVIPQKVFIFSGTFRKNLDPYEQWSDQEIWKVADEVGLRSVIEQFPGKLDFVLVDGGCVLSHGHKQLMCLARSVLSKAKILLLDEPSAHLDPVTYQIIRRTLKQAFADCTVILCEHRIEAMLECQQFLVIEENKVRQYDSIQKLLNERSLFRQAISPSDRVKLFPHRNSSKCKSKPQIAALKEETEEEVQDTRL

In the case of `COc1ccc(Cl)cc1NC(=O)c1cc2c([nH]1)-c1nc(NC(=O)C(C)(C)C)sc1CC2` [compound 44, N-(5-Chloro-2-Methoxyphenyl)-2-[(2,2-Dimethylpropanoyl)Amino]-5,8-Dihydro-4H-[1,3]Thiazolo[5,4-g]Indole-7-Carboxamide], the EC50 is reported as 5 µM.
